The values below come from article PMC13594947 (Journal of Molecular and Cellular Cardiology Plus, 2026).

Like-named read-outs stand apart in the source and are kept apart here.

In data set [1] the test system is murine heart. The data set can be described thus: PRMT5i combined with ORAB/sham surgery: histology (fibrosis). To be noted: mice. In kind it is in vivo. From the text:
The surgical procedure was essentially performed as previously described^20. In brief, animals were narcotized using Isoflurane. The thorax was opened and a nitrile O-ring (inner diameter 0.020 inch) was closed around the aorta ascendens in order to enhance pressure load of the left ventricle. Perisurgically and for the following days, analgesia was maintained via buprenorphine. Heart cross-sections (2-chamber view) were fixed in Roti Histofix (Roth, P087.5) and dehydrated in ethanol. After paraffin embedding, slices of 6µm thickness were cut and used for Hematoxylin/Eosin and Masson’s trichrome staining. Imaging was performed on a Zeiss Axioscan 7. For analysis, 10 snapshots of fixed dimension were taken per animal and the percentage of fibrotic tissue was assessed based on color threshold using ImageJ.

The subject of data set [2] is murine heart. The data set is described as follows: Short-term application (5 consecutive days) in mice: transthoracic echocardiography, survival. It counts as in vivo. The procedure: (§1) All animal studies were approved by and conducted in accordance with the German Animal Welfare Act and approved by the Animal Experiment Review Board of the Regierungspräsidium Karlsruhe, Germany. The study refers to the application G210-19. C57BL/6N mice were purchased from Charles River at the age of 12 weeks. Male and female mice were included in an equal ratio.
(§2) The compound (Medchemexpress) was dissolved in 5% DMSO, 40% PEG300, 5% Tween-80 in isotonic saline solution and administered either via oral gavage or by injection into the tail vein. Control animals received the same solution without compound.
(§3) Cardiac performance was determined by transthoracic echocardiography. Measurements on conscious mice were performed using a Vevo® 2100 system with a 55 MHz transducer (Visualsonics). Ejection fraction (EF) was averaged over at least 5 contraction cycles. The experimenter was blinded for genotype and treatment.

The subject of data set [3] is hematopoiesis. The data set can be described thus: PRMT5i combined with ORAB/sham surgery: blood cell parameters. In kind it is in vivo. To be noted: mice, chronic PRMT5i with ORAB/sham. The procedure:
The surgical procedure was essentially performed as previously described^20. In brief, animals were narcotized using Isoflurane. The thorax was opened and a nitrile O-ring (inner diameter 0.020 inch) was closed around the aorta ascendens in order to enhance pressure load of the left ventricle. Perisurgically and for the following days, analgesia was maintained via buprenorphine. Hematological parameters were analyzed using an automated hematology analyzer ([…] ABC, ABX Diagnostics, France) according to manufacturer's instructions. Whole blood samples were collected into EDTA-coated tubes to prevent coagulation. The following parameters were determined: red blood cell count (RBC), white blood cell count (WBC), hemoglobin concentration (HGB), mean corpuscular volume (MCV), mean corpuscular hemoglobin (MCH), platelet count (PLT), and differential leukocyte counts.

Data set [4] concerns murine heart. The data set is described as follows: Long-term application in mice: Masson Trichrome histology (fibrosis). In kind it is in vivo. To be noted: 8 weeks. On the procedure: (§4) Heart cross-sections (2-chamber view) were fixed in Roti Histofix (Roth, P087.5) and dehydrated in ethanol. After paraffin embedding, slices of 6µm thickness were cut and used for Hematoxylin/Eosin and Masson’s trichrome staining. Imaging was performed on a Zeiss Axioscan 7. For analysis, 10 snapshots of fixed dimension were taken per animal and the percentage of fibrotic tissue was assessed based on color threshold using ImageJ.

Another data set has as its system HEK293 cells. The data set can be described thus: PRMT5i-associated cytotoxicity, CellTiter 96 Cell Proliferation Assay. In kind it is cell-based. To be noted: dosage escalation beyond 10 μM, 48 h exposure. The procedure: HEK293 cells (ATCC) were cultured in DMEM (PanBiotech) supplemented with 10% FCS (Thermo Fisher) and 1% penicillin-streptomycin (Thermo Fisher) and incubated at standard conditions. Cells between passage 5 and 18 were used for experiments. Neonatal rat ventricular myocytes (NRVMs) were isolated from 24h-to-72h old rats using the Neonatal Heart Dissociation Kit (Miltenyi Biotec) according to manufacturer’s recommendations, cultured in DMEM supplemented with 10% FCS and 1% penicillin-streptomycin and incubated at standard conditions. EPZ015666 and GSK3326595 (MedChemExpress) were dissolved in DMSO and added into the culture medium at indicated dosages. For protein analysis, cells were treated for 96 h including a medium exchange after 48 h. Control cells were treated with DMSO accordingly. Single values in the analysis represent individually treated wells (technical replicates) and experiments were reproduced at least three times using independent cell passages or preparations. […] The treatment was performed in individual wells and absorbance at 570 nm was recorded on an EnSight Plate reader (PerkinElmer).

Data set [5] concerns hematopoiesis. The data set can be described thus: Long-term application in mice: blood cell parameters. In kind it is in vivo. To be noted: 8 weeks. The procedure:
Hematological parameters were analyzed using an automated hematology analyzer ([…] ABC, ABX Diagnostics, France) according to manufacturer's instructions. Whole blood samples were collected into EDTA-coated tubes to prevent coagulation. The following parameters were determined: red blood cell count (RBC), white blood cell count (WBC), hemoglobin concentration (HGB), mean corpuscular volume (MCV), mean corpuscular hemoglobin (MCH), platelet count (PLT), and differential leukocyte counts.

In data set [6] the test system is mice. The data set can be described thus: Long-term application in mice: body weight, mortality, heart and lung weight to tibia length. To be noted: 8 weeks. In kind it is in vivo. On the procedure:
as §1, §2

Data set [7] concerns mice. The data set can be described thus: PRMT5i combined with ORAB/sham surgery: mortality. It counts as in vivo. To be noted: PRMT5i-treated mice undergoing ORAB. The procedure: as §2
(§5) The surgical procedure was essentially performed as previously described^20. In brief, animals were narcotized using Isoflurane. The thorax was opened and a nitrile O-ring (inner diameter 0.020 inch) was closed around the aorta ascendens in order to enhance pressure load of the left ventricle. Perisurgically and for the following days, analgesia was maintained via buprenorphine.

Another data set concerns patients. To be noted: ref [12], [18]; cited from earlier work.
The test system of data set [8] is murine heart. The data set can be described thus: Short-term application in mice: histology of cardiac cross-sections. It counts as in vivo. To be noted: oral once or twice a day, 5 consecutive days. The procedure:
as §4, with “The compound (Medchemexpress) was dissolved in 5% DMSO, 40% PEG300, 5% Tween-80 in isotonic saline solution and administered either via oral gavage or by injection into the tail vein. Control animals received the same solution without compound. Heart” for “Heart”

Data set [9] is described as follows: Single-dose pharmacokinetics in mice: plasma levels by UPLC-MS/MS. It counts as in vivo. The procedure:
(§6) All animal studies were approved by and conducted in accordance with the German Animal Welfare Act and approved by the Animal Experiment Review Board of the Regierungspräsidium Karlsruhe, Germany. The study refers to the application […]-19. C57BL/6N mice were purchased from Charles River at the age of 12 weeks. Male and female mice were included in an equal ratio. The compound (Medchemexpress) was dissolved in 5% DMSO, 40% PEG300, 5% Tween-80 in isotonic saline solution and administered either via oral gavage or by injection into the tail vein. Control animals received the same solution without compound. […] Tissue samples were homogenized in water using a Bead Ruptor 4 homogenizer (Omni International Inc, USA) for at least 120 s with ceramic beads. After protein precipitation with acetonitrile, plasma and tissue sample extracts were measured using an UPLC-MS/MS (Waters, USA) setup including an Acquity UPLC I-Class® coupled with a Xevo TQ-S triple stage quadrupole mass spectrometer (Waters), which featured a heated ESI source (Z-Spray in the positive MRM mode). Gradient chromatography was conducted using an ACQUITY UPLC BEH C18 column (130 Å, 1.7 μm, 2.1 mm × 50 mm; Waters, USA) consisting of eluent A (95/5 H2O/ACN with 0.1% formic acid) and eluent B (ACN with 0.1% formic acid).

The test system of another data set is Myh7 and Nppa expression. The data set is described as follows: PRMT5i combined with ORAB/sham surgery: quantitative PCR of Myh7 and Nppa in left-ventricular tissue. It counts as in vivo. To be noted: mice. The procedure:
as §5
1µg of RNA was reverse transcribed (PrimaDIRECT 2x PCR Master Mix Kit (Steinbrenner)) and cDNA was subjected to quantitative PCR on a LightCycler480 (Roche) using SYBR Green Master Mix (Thermo Fisher).
mmMyh7: • For: 5’ AGCATTCTCCTGCTGTTTCCT 3’ • Rev: 5’ CCAGGCCTGTAGAAGAGCTG 3’
mmNppa: • For: 5’ ATTGACAGGATTGGAGCCCAGAGT 3’ • Rev: 5’ TGACACACCACAAGGGCTTAGGAT 3’
mmGapdh: • For: 5’ GGTGGACCTCATGGCCTACA 3’ • Rev: 5’ CTCTCTTGCTCAGTGTCCTTGCT 3’

Data set [10] can be described thus: Single-dose pharmacokinetics in mice: tissue levels (heart, liver, kidney, skeletal muscle) by UPLC-MS/MS. In kind it is in vivo. To be noted: for concentration at 1 h: po, 100 mg/kg, oral 100 mg/kg, peak (1 h). The procedure: as §6
Data set [11] deals with murine heart. The data set can be described thus: Long-term application (8 weeks) in mice: transthoracic echocardiography. It counts as in vivo. To be noted: over the course of 8 weeks. On the procedure:
as §1, §2, §3

For data set [12], the system named is murine heart. The data set can be described thus: PRMT5i combined with O-ring aortic banding (ORAB)/sham surgery: echocardiography. It counts as in vivo. To be noted: mice, 56 days combined with ORAB/sham surgery. The procedure: The compound (Medchemexpress) was dissolved in 5% DMSO, 40% PEG300, 5% Tween-80 in isotonic saline solution and administered either via oral gavage or by injection into the tail vein. Control animals received the same solution without compound. Cardiac performance was determined by transthoracic echocardiography. Measurements on conscious mice were performed using a Vevo® 2100 system with a 55 MHz transducer (Visualsonics). Ejection fraction (EF) was averaged over at least 5 contraction cycles. The experimenter was blinded for genotype and treatment.

The test system of another data set is PRMT5. The data set can be described thus: Immunoblot of global SDMA in neonatal rat ventricular cardiomyocytes. It counts as cell-based. To be noted: concentrations up to 50 μM. A general note: In western blotting, separated proteins are transferred to a membrane and probed.

The term half-life denotes the time in which the quantity being followed falls by half. The low end stands for rapid decline, the high end for slow decline. What is called bioavailability is the share of a dose that reaches the circulation, judged against a reference dose that is usually intravenous.

For `CC(=O)N1CCC(Nc2cc(C(=O)NC[C@H](O)CN3CCc4ccccc4C3)ncn2)CC1` [GSK3326595], in the data set with murine heart [1], the “fibrotic remodeling (histology)” value was “no significant fibrotic remodeling”. Besides, the “ejection fraction” value with murine heart [2] (oral once or twice a day, 5 consecutive days) is recorded as “did not detect changes in ejection fraction”. Further, in the data set with murine heart [2] (short-term application, 10 mg/kg), the “death during the experiment” value is “one animal (10 mg/kg) that died during the course of the experiment”. Moreover, in the data set with hematopoiesis [3], the “hematology: anemia, leucopenia” value is “significant normocytic normochromic anemia and leucopenia”; the platelets entry is listed as “not affected”. In addition, the “myocardial fibrosis (Masson Trichrome staining)” value in the data set on murine heart [4] is “remained stable”. In addition, in the data set on HEK293 cells, the cytotoxicity entry was “significantly less cytotoxicity as compared to EPZ015666”. In addition, in the data set on hematopoiesis [5], the “hematology: anemia, lymphopenia” value was “significant anemia and lymphopenia”; the platelets counts entry is “unaltered”. Further, in the data set with mice [6], the “heart weight-to-tibia length and lung weight-to-tibia length” value was “did not reveal PRMT5i-induced alterations”; the “tolerability (body weight, mortality)” value is reported as “well tolerated as determined by stable body weight without treatment-associated mortality”. Moreover, in the data set with mice [7], the mortality entry is on record as “delayed mortality starting 2 weeks post-surgery”. For the same molecule, in the data set on patients, the “adverse cardiovascular events in clinical studies” value is reported as “manifested adverse cardiovascular events were not described”. In addition, the “tissue morphology / fibrotic remodeling” value in the data set on murine heart [8] is recorded as “no immediate detrimental effects or fibrotic remodeling”. The molecule further registered a half-life in [9] (both sexes, C57BL/6N, mouse, plasma) of 2.5 h. In addition, the bioavailability in [9] (both sexes, C57BL/6N, mouse, plasma, po) was determined as 5.7%. The “decline of plasma concentration on average” value in data set [9] (over a course of 12 h) is greater than 90%. The “time of plasma peak concentration post application” value in data set [9] (single dose oral gavage or intravenous) amounted to 1 h. In addition, in the data set on Myh7 and Nppa expression, the “expression of cardiac stress markers Myh7 and Nppa” value was “stable expression of classical cardiac stress markers such as Myh7 and Nppa”. Besides, in data set [10] (as worded), the “heart targeted by % dosage on average” value is 19.0% and the “muscle tissue targeted by % dosage on average” value was determined as 26.0%. In addition, in data set [10] (as worded in b7, first of 'respectively'), the “heart targeted by % dosage on average (versus liver)” value is listed as 26.0%. The “heart targeted by % dosage on average (versus kidney)” value in data set [10] (as worded in b7, second of 'respectively') was found to be 19.0%. Further, in data set [10] (both sexes, C57BL/6N, mouse, heart, read-out: absolute inhibitor concentration in heart), the concentration at 1 h was 82700 ng/g. Moreover, the Tmax in data set [10] (both sexes, C57BL/6N, mouse, liver, kidney, heart, skeletal muscle, other: oral (gavage) and intravenous (tail vein), both arms, single dose, read-out: time of maximum levels in liver, kidney, heart and skeletal muscle) worked out at 1 h. Moreover, the concentration at 1 h in data set [10] (both sexes, C57BL/6N, mouse, skeletal muscle, read-out: absolute inhibitor concentration in skeletal muscle) stood at 172000 ng/g. Further, the systolic cardiac function result in the data set with murine heart [11] is listed as “preserved”. In the data set with murine heart [12], the longitudinal echocardiographic analysis entry is recorded as “no statistical significance was found for any of the indicated time points in any group comparison”.

Turning to `O=C(NC[C@H](O)CN1CCc2ccccc2C1)c1cc(NC2COC2)ncn1` [EPZ015666], in the data set with PRMT5, the “global SDMA” value was “did not detect a significant reduction of global SDMA”.
